Patent US20200206231A1, “TOPICAL PHARMACEUTICAL COMPOSITION, METHOD FOR PRODUCING THE TOPICAL PHARMACEUTICAL COMPOSITION, USE OF TOPICAL PHARMACEUTICAL COMPOSITION AND METHOD FOR TOPICAL TREATMENT OF PSORIASIS, ATOPIC DERMATITIS OR CHRONIC ECZEMA” (BIOLAB SANUS FARMACÊUTICA LTDA., priority 2012, published 2020)

Assays:
Assay type in all cases: cell-based
Conditions in all cases: human keratinocytes + LPS, 48 hours, mean ± standard deviation
IL-1 = test: Production of IL-1 in LPS-stimulated human keratinocyte culture (sandwich ELISA)
Experimental: (§1) the effect of formulation 1 (described in example 1) was evaluated In this study, in the synthesis of inflammatory mediators: IL-1, IL-6, IL-8, IL-10, IL-12, prostaglandin E2 (PGE2), Leukotriene B4 (LBT4), interferon gamma (IFN-gamma) and tumor necrosis factor alpha (TNF-alpha) in a culture of human keratinocytes in basal condition and stimulated with bacterial lipopolysaccharides (LPS), to simulate the inflammatory response.
(§2) Human keratinocytes (Cascade Biologics, USA) were sown in 75 cm^2 bottles (Corning Inc, USA), cultured and expanded in a wet incubator to 37° C. in the presence of CO2, using a specific culture medium. When reaching confluence, cells were seeded in 24 well plates (Nunc, USA) for further incubation with non-toxic dilutions of formulation 1, described in example 1, and for evaluation of proposed mediators.
(§3) The evaluated concentrations were 0.0002; 0.0001; and 0.000025 and 0.00005% (w/v).
(§4) Cells were kept in touch with dilutions of the formulations and LPS (Sigma, USA) for 48 hours for further collection of the supernatant and the cell lysate. As a positive control of production of mediators, the cells were kept in touch only with LPS (Sigma, USA) in the same amount administered along with the formulations (samples), and as a basal control, cells alone were used, without the presence of LPS or formulations.
(§5) Quantification of inflammatory mediators (IL-1, IL-6, IL-8, IL-10, IL-12, IFN-gamma and TNF-alpha) was performed using a kit of enzyme-linked immunosorbent assay (sandwich ELISA) commercially available. And the quantification of PGE2 and LBT4 mediators was performed by an ELISA competitive binding assay. The results were expressed in pg/mL, calculated from the values of references obtained with a standard curve constructed with known concentrations of the mediators of interest (table 2).

IL-8 = test: Production of IL-8 in LPS-stimulated human keratinocyte culture (sandwich ELISA)
Experimental: as §1, §2, §3, §4, §5

IL-10 = test: Production of IL-10 in LPS-stimulated human keratinocyte culture (sandwich ELISA)
Experimental: as §1, §2, §3, §4, §5

IL-12 = test: Production of IL-12 in LPS-stimulated human keratinocyte culture (sandwich ELISA)
Experimental: as §1, §2, §3, §4, §5

LTB4 = test: Production of LTB4 in LPS-stimulated human keratinocyte culture (ELISA competitive binding assay)
Experimental: as §1, §2, §3, §4, §5

TNF-alpha = test: Production of TNF-alpha in LPS-stimulated human keratinocyte culture (sandwich ELISA)
Experimental: as §1, §2, §4, §5

SMILES | Production of inflammatory mediators: IL-1 (IL-1; Dilution: 0.00005 (% w/v)) [pg/mL] | Production of inflammatory mediators: IL-1 (IL-1; Dilution: 0.0002 (% w/v)) [pg/mL] | Production of inflammatory mediators: IL-8 (IL-8; Dilution: 0.00005 (% w/v)) [pg/mL] | Production of inflammatory mediators: IL-8 (IL-8; Dilution: 0.0002 (% w/v)) [pg/mL] | Production of inflammatory mediators: IL-10 (IL-10; Dilution: 0.00005 (% w/v)) [pg/mL] | Production of inflammatory mediators: IL-10 (IL-10; Dilution: 0.0002 (% w/v)) [pg/mL] | Production of inflammatory mediators: IL-12 (IL-12; Dilution: 0.00005 (% w/v)) [pg/mL] | Production of inflammatory mediators: IL-12 (IL-12; Dilution: 0.0002 (% w/v)) [pg/mL] | Production of inflammatory mediators: LTB4 (LTB4; Dilution: 0.00005 (% w/v)) [pg/mL] | Production of inflammatory mediators: LTB4 (LTB4; Dilution: 0.0002 (% w/v)) [pg/mL] | Production of inflammatory mediators: TNF-alpha (TNF-alpha; Dilution: 0.0002 (% w/v)) [pg/mL] | Production of inflammatory mediators: TNF-alpha (TNF-alpha; Dilution: 0.00005 (% w/v)) [pg/mL]
CN(Cc1cnc2nc(N)nc(N)c2n1)c1ccc(C(=O)N[C@@H](CCC(=O)O)C(=O)O)cc1 [Methotrexate] | 291.69 ± 34.42 | 187.35 ± 26.22 | 39.07 ± 7.53 | 19.39 ± 8.00 | 29.08 ± 1.36 | 23.11 ± 1.08 | 1042.00 ± 53.03 | 1004.50 ± 70.71 | 1282.15 ± 174.81 | 543.82 ± 78.75 | 4.82 ± 0.32 | 
CC(C)=CCC[C@@](C)(O)[C@H]1CC=C(C)CC1 [Alpha bisabolol, 1-methyl-4-(1,5-dimethyl-1-hydroxy-4(5)-hexenyl)-1-cyclohexene] | 313.43 ± 33.30 | 354.74 ± 37.03 | 64.23 ± 13.00 | 28.90 ± 9.58 | 27.15 ± 2.99 | 28.30 ± 1.36 | 979.50 ± 35.35 | 954.50 ± 70.71 | 1083.83 ± 115.59 | 648.55 ± 11.09 | 8.00 ± 1.61 | 6.64 ± 0.32
